# Measured values published in publication PMC7221740, “Cyclic Synthetic Peroxides Inhibit Growth of Entomopathogenic Fungus Ascosphaera apis without Toxic Effect on Bumblebees” (Molecules, 2020).
# What was measured:
# A. apis [1] = tested on: A. apis; design: method as in PMID 30862950; conditions: ref [54]; cited from earlier work
# Ascosphaera apis = experiment: Inhibition of radial growth of Ascosphaera apis mycelium in potato-saccharose agar; format: cell-based; conditions: 72 h; for inhibition at 30 µg/mL / EC50: Ascosphaera apis; for inhibition at 30 µg/mL / Mycelium Growth Inhibition (I), %: A. apis, concentration 30 mg/L, potato-saccharose agar, 25 °C; for inhibition at 30 µg/mL: read-out: Mycelium Growth Inhibition (I), %; for EC50: A. apis mycelium growth, read-out: EC50 (mg/L) ± SD, fungicidal activity
# A. apis [2] = tested on: A. apis; design: method as in PMID 22263693; conditions: ref [55]; read-out: IC50 against A. apis; cited from earlier work
# [3] = tested on: bumblebees Bombus terrestris L.; experiment: Ability of bumblebees to fly; format: in vivo; conditions: for Ability of bumblebees to fly in the contact action test: peroxides 30 mg/L in water with DMSO (5% vol.); for Decrease of the ability of bumblebees to fly after consumption of sugar syrup: feeding, versus control group
# [4] = tested on: bumblebees Bombus terrestris L.; experiment: Toxic effect on bumblebees (feeding with inverted sugar syrup); format: in vivo; conditions: concentration not given
# Procedure: In the next step, we evaluated the toxicity of active peroxides 1–4, 6 towards bumblebees. Two approaches were used for this purpose. The first approach was a contact action of bumblebees with 30 mg/L solution of peroxide in water containing DMSO (5% vol.). The second approach was feeding of bumblebees with inverted sugar syrup containing peroxides 1–4, 6 (the concentration of peroxide was 30 mg/L) and DMSO (5% vol.). The mortality of bumblebees after their contact with solutions of peroxides 1–4, 6 was absent. […] However, after the consumption of sugar syrup containing difenoconazole or penconazole, the ability of bumblebees to fly was decreased by 1.4 times and 1.3 times, respectively (Figure 4). On average, bumblebees from the control group were in flight for 9 min 28 s. After the consumption of syrup with difenoconazole and penconazole (see Materials and methods), the time spent by insects in flight decreased to 6 min 36 s and 7 min 17 s, respectively.
# Peroxide 1–4, 6 (0.3 mg or 3.0 mg) was added to 500 µL of DMSO, and the resulting solution was diluted with 60% inverted sugar syrup to 10 mL. After that, 30 mg/L or 300 mg/L solution of peroxide in inverted sugar syrup containing DMSO (5% vol.) was obtained. A solution of DMSO (500 µL) in 60% inverted sugar syrup was used as the control solution. […]
# [5] = tested on: bumblebees Bombus terrestris L.; experiment: Toxic effect on bumblebees (contact action); conditions: concentration not given
melting point [°C],SMILES,inhibition at 30 µg/mL (Ascosphaera apis) [%],EC50 (Ascosphaera apis) [mg/L],other results
–,COc1ccc(C(=O)/C=C/c2ccc(O)cc2)c(O)c1CC=C(C)C [4-hydroxyderricin],–,–,MIC against A. apis (A. apis [1]): 6.25 µg/mL
–,"C=CCC1(C(=O)OCC)CCC2(C)OOC1(C)O2 (centres unmarked) [Compound 1, Ethyl-2-allyl-1,5-dimethyl-6,7,8-trioxabicyclo[3.2.1]octane-2-carboxylate]",94,4 ± 0.2,–
130 to 131,"CC12OOC(C)(OO1)C2C12CC3CC(CC(C3)C1)C2 (centres unmarked) [Compound 6, 7-(Adamantan-1-yl)-1,4-dimethyl-2,3,5,6-tetraoxabicyclo[2.2.1]heptane]",94,1.6 ± 0.1,–
89 to 90,"COc1ccc(C23OOC4(C)OC(C)(CCC42)O3)cc1 (centres unmarked) [Compound 7, 3-(4-Methoxyphenyl)-6,7a-dimethyltetrahydro-3H,4H-3,6-epoxy[1,2]dioxolo[3,4-b]pyran]",53,–,–
43 to 44,"C=CCC12CCC3(C)OC1(C)OOC2(C)O3 [Compound 8, 3a-Allyl-3,6,7a-trimethyltetrahydro-3H,4H-3,6-epoxy[1,2]-dioxolo[3,4-b]pyran]",25,–,–
–,"CO/N=C(/C(=O)OC)c1ccccc1COc1ccccc1C [Kresoxim-methyl 10, Kresoxim-methyl]",< 100,< 1,"Mycelium Growth Inhibition (I), % (Ascosphaera apis): 88%; Mycelium Growth Inhibition (I), % (Ascosphaera apis; listed as Kresoxim-methyl): did not completely inhibit"
–,CCCCCC(=O)O[C@H]1C(=O)c2c(O)cc(O)cc2O[C@@H]1c1ccccc1 [Pinobanksin-3-hexanoate],–,–,IC50 (A. apis [2]): 23 ± 2 µM
–,"CC(C)(C)C(=O)C(Oc1ccc(Cl)cc1)n1cncn1 (centres unmarked) [Triadimefon 9, Triadimefon]",< 100,7.1 ± 0.8,"Mycelium Growth Inhibition (I), % (Ascosphaera apis): 91%"
–,CC1COC(Cn2cncn2)(c2ccc(Oc3ccc(Cl)cc3)cc2Cl)O1 (centres unmarked) [difenoconazole],–,–,Ability of bumblebees to fly in the contact action test [3]: did not affect the ability to fly; Decrease of the ability of bumblebees to fly after consumption of sugar syrup [3]: 1.4 times; Bumblebee mortality after consumption of syrup with commercial fungicide [4]: had not increased; Bumblebee mortality in contact with commercial fungicide [5]: had not increased
–,CCCC(Cn1cncn1)c1ccc(Cl)cc1Cl (centres unmarked) [penconazole],–,–,Ability of bumblebees to fly in the contact action test [3]: did not affect the ability to fly; Decrease of the ability of bumblebees to fly after consumption of sugar syrup [3]: 1.3 times; Bumblebee mortality after consumption of syrup with commercial fungicide [4]: had not increased; Bumblebee mortality in contact with commercial fungicide [5]: had not increased
